The values below come from PMC7390954 (Frontiers in Microbiology, 2020).

In assay [1] the test system is P. aeruginosa UCBPP-PA14 wild-type. It is filed as cell-based, Pseudomonas aeruginosa. The conditions noted are these: standard twofold dilution MIC in 96-well plates.
Assay [2] has as its system P. aeruginosa UCBPP-PA14 wild-type and tssK-2 mutant (1:1). It is filed as cell-based, Pseudomonas aeruginosa.
The subject of assay [3] is Pseudomonas aeruginosa UCBPP-PA14 wild-type.
The subject of a further assay is P. aeruginosa. The conditions noted are these: cited from earlier work.

By MIC90 is commonly meant an inhibitory concentration at the 90% level, which refers to growth in some studies and to a panel of isolates in others.

In brackets after ≈: the same amount, converted by molar mass. Peptide text beside a SMILES is read from it.

As to `CC(C)CCCCC(=O)N[C@@H](CCN)C(=O)N[C@H](C(=O)N[C@@H](CCN)C(=O)N[C@H]1CCNC(=O)[C@H]([C@@H](C)O)NC(=O)[C@H](CCN)NC(=O)[C@H](CCN)NC(=O)[C@H](CC(C)C)NC(=O)[C@@H](Cc2ccccc2)NC(=O)[C@H](CCN)NC1=O)[C@@H](C)O` [PMB, polymyxin B2] (HELM PEPTIDE1{[CC(C)CCCCC(=O)[*:2]].[Dab].T.[Dab].[Dab].[Dab].[dF].L.[Dab].[Dab].T}$PEPTIDE1,PEPTIDE1,5:R3-11:R2$$$V2.0), the “MIC, Without Spermidine” value in assay [1] is given as 50. Also, the “MIC, With 4 mM Spermidine” value in assay [1] (4 mM spermidine) is on record as above 100. Besides, in assay [2], the “fate of tssK-2 mutant in 1:1 mixture with wild-type” value is “out-competed”. Also, the “MIC, BM2 (H)” value in assay [3] (BM2 with high (2 mM) Mg2+, MIC = no growth after 10 h) stood at 0.3 µg/mL (≈ 0.252 µM). Moreover, the “MIC, BM2 (L)” value in assay [3] (BM2 with low (20 μM) Mg2+, 0.002% tween 80, 0.2% rhamnose, MIC = no growth after 10 h) amounted to 32 µg/mL (≈ 26.9 µM). For the same compound, the “Sub-MIC (L)” value in assay [3] (BM2 with low (20 μM) Mg2+, concentration that slowed down growth by 30% compared to untreated control) was found to be 2 µg/mL.

murepavadin: in the assay on P. aeruginosa, the MIC90 was 2 µg/mL.
